# Tests used:
# DOHH2 = test: Combination of EPZ-6438 and other therapeutic agents (4+3 model), DOHH2; assay type: cell-based; conditions: for combination effect with EPZ-6438, DOHH2: WT EZH2 GCB; for combination effect with EPZ-6438, DOHH2 (WT EZH2 GC): Table 3
# OCI-LY19 = test: Combination of EPZ-6438 and other therapeutic agents (4+3 model), OCI-LY19; conditions: for combination effect with EPZ-6438, OCI-LY19: WT EZH2 GCB
# RC-K8 = test: Combination of EPZ-6438 and other therapeutic agents (4+3 model), RC-K8; conditions: WT EXH2 ABC
# Toledo = conditions: Table 3; 4+3 model
# SUDHL5 = test: Combination of EPZ-6438 and other therapeutic agents (4+3 model), SUDHL5; conditions: for combination effect with EPZ-6438, SUDHL5: WT EZH2 GCB
# KARPAS-422 = test: Combination of EPZ-6438 and other therapeutic agents (4+3 model), KARPAS-422; conditions: Mutant EZH2 GCB
# Farage = test: Combination of EPZ-6438 and other therapeutic agents (4+3 model), Farage; conditions: WT EZH2 GCB
# TMD8 = test: Combination of EPZ-6438 and other therapeutic agents (4+3 model), TMD8; conditions: WT EXH2 ABC
# OCI-LY7 = test: Combination of EPZ-6438 and other therapeutic agents (4+3 model), OCI-LY7; conditions: WT EZH2 GCB
# SUDHL2 = test: Combination of EPZ-6438 and other therapeutic agents (4+3 model), SUDHL2; conditions: WT EXH2 ABC
# OCI-LY3 = test: Combination of EPZ-6438 and other therapeutic agents (4+3 model), OCI-LY3; conditions: WT EXH2 ABC
# SU-DHL-6 = test: Combination of EPZ-6438 and other therapeutic agents (4+3 model), SU-DHL-6; conditions: for combination effect with EPZ-6438, SU-DHL-6: Mutant EZH2 GCB; for combination effect with EPZ-6438, SU-DHL-6 (mutant EZH2 GC): Table 3
# SU-DHL-10 = test: Combination of EPZ-6438 and other therapeutic agents (4+3 model), SU-DHL-10; conditions: for combination effect with EPZ-6438, SU-DHL-10: Mutant EZH2 GCB; for combination effect with EPZ-6438, SU-DHL-10 (mutant EZH2 GC): Table 3
# WSU-DLCL2 = test: Combination of EPZ-6438 and other therapeutic agents (4+3 model), WSU-DLCL2; conditions: for combination effect with EPZ-6438, WSU-DLCL2: Mutant EZH2 GCB, EPZ-6438 4 days then co-treatment 3 days (4+3 model); for combination effect with EPZ-6438, WSU-DLCL2 (mutant EZH2 GC): Table 3, 4+3 model
# SUDHL6 tumor = test: EPZ-6438 with CHOP chemotherapy in vivo, SUDHL6 tumor (FIG. 3B, 3C)
# KARPAS 422 tumor = test: Single agent activity of EPZ-6438 in KARPAS 422 tumor (FIG. 2A); assay type: in vivo; conditions: mutant EZH2 (Y646N)
# [1] = human, in vivo
# Text: (§1) The phase 1 trial enrolled patients with relapsed/refractory solid tumors and B cell lymphoma. The study employed a standard 3+3 dose escalation design with two planned dose expansion cohorts and clinical pharmacology sub-studies. The primary endpoint was determination of a recommended phase 2 dose or MTD with standard secondary endpoints. The results of the study are also presented in WO 2015195848 and figures therein, the content of which is hereby incorporated by reference in its entirety.
# […]. One patient discontinued drug for grade 4 neutropenia. Both of these patients were treated in the 800 mg expansion cohort. • Seven patients had dose interruptions. Of these, 6 were from a reversible toxicity and resumed study agent at prior dose without further issue.
# Non-Hodgkin's lymphoma = test: Phase 1 clinical study of EPZ-6438: tumor response; assay type: in vivo, human
# Text: as §1
# The patients enrolled included 19 patients with Non-Hodgkin's lymphoma (NHL) of which 13 patients have DLBCL. Cell-of origin testing was intended for all NHL patients; however, 3 DLBCL patients had insufficient tissue to permit determination of germinal center vs. non-germinal center status. EZH2 mutation testing was centrally performed for 14 NHL patients by the Cobas® test (Roche). One lymphoma patient whose tumor has been treated to date carries an EZH2 mutation. For the solid tumor patients, attention has been given to recruiting patients with INI1-deficient tumors due to the oncogenic role of EZH2 in these tumors.
# NHL patients on study were heavily pre-treated with 85% having received three or more prior systemic therapies and nearly half receiving four or more prior regimens.
# H3K27 trimethylation = test: Phase 1 clinical study: tri-methyl H3K27 levels in skin biopsy by immunohistochemistry; assay type: in vivo, human; conditions: for reduction from baseline in PD H3K27 trimethylation in skin biopsy: wild type EZH2
# Text: Pre- and post-dose skin biopsies were collected to assess pharmacodynamics in a surrogate tissue through the measurement of tri-methyl H3K27 levels by immunohistochemistry.
# WSU-DLCL2 tumor = test: EPZ-6438 with CHOP chemotherapy in vivo, WSU-DLCL2 tumor (FIG. 3A)
# clinical = conditions: human, in vivo
# Text: as §1
# […]. […] While a decrease in AUC between the first dose and day 15 was observed, there was no further reduction in systemic exposure beyond that time, as evidenced by pre-dose Ctrough levels in the right panel.
# HT = test: Combination of EPZ-6438 and other therapeutic agents (4+3 model), HT; conditions: WT EZH2 GCB
# [2] = patient with primary mediastinal B-cell lymphoma, wild type EZH2, 200 mg orally twice a day
compound,measurement,setting,value
C[C@@H]1C[C@H]2[C@@H]3CCC4=CC(=O)C=C[C@]4(C)[C@@]3(F)[C@@H](O)C[C@]2(C)[C@@]1(O)C(=O)CO [Dexamethasone],"combination effect with EPZ-6438, DOHH2",DOHH2,S
same,"combination effect with EPZ-6438, OCI-LY19",OCI-LY19; 4+3 model,S
same,"combination effect with EPZ-6438, RC-K8",RC-K8,S
same,"combination effect with EPZ-6438, Toledo (WT EZH2 ABC)",Toledo,No effect
same,"combination effect with EPZ-6438, SUDHL5",SUDHL5,S
same,"combination effect with EPZ-6438, KARPAS-422",KARPAS-422,S
same,"combination effect with EPZ-6438, Farage",Farage,S
same,"combination effect with EPZ-6438, TMD8",TMD8,S
same,"combination effect with EPZ-6438, OCI-LY7",OCI-LY7,S
same,"combination effect with EPZ-6438, SUDHL2",SUDHL2,S
same,"combination effect with EPZ-6438, OCI-LY3",OCI-LY3,S
same,"combination effect with EPZ-6438, SU-DHL-6",SU-DHL-6,S
same,"combination effect with EPZ-6438, SU-DHL-10",SU-DHL-10,S
same,"combination effect with EPZ-6438, WSU-DLCL2",WSU-DLCL2,S
COc1cccc2c1C(=O)c1c(O)c3c(c(O)c1C2=O)C[C@@](O)(C(=O)CO)C[C@@H]3O[C@H]1C[C@H](N)[C@H](O)[C@H](C)O1 [Doxorubicin],"combination effect with EPZ-6438, DOHH2 (WT EZH2 GC)",DOHH2,No effect
same,"combination effect with EPZ-6438, Toledo (WT EZH2 ABC)",Toledo,No effect
same,"combination effect with EPZ-6438, SU-DHL-6 (mutant EZH2 GC)",SU-DHL-6,Additive
same,"combination effect with EPZ-6438, SU-DHL-10 (mutant EZH2 GC)",SU-DHL-10,Additive
same,"combination effect with EPZ-6438, WSU-DLCL2 (mutant EZH2 GC)",WSU-DLCL2,Synergy
"CCN(c1cc(-c2ccc(CN3CCOCC3)cc2)cc(C(=O)NCc2c(C)cc(C)[nH]c2=O)c1C)C1CCOCC1 [EPZ-6438, tazemetostat]",effect of combination with CHOP chemotherapy on mean tumor volume and survival,SUDHL6 tumor,synergy
same,activity of EPZ-6438 in combination with prednisolone,"OCI-LY19; OCI-LY19, FIG. 1B",possesses activity
same,"tumor growth, single agent",KARPAS 422 tumor,growth inhibition
same,"Grade 3 or greater adverse events, fraction of patients",[1],a third
same,Grade 3 or greater treatment-related adverse events,[1],5 patients
same,tolerability,[1],well-tolerated
same,objective response,Non-Hodgkin's lymphoma; DLBCL,5 of 9
same,reduction of abdominal mass,"Non-Hodgkin's lymphoma; DLBCL patient with EZH2 mutation, by week 16",52%
same,objective response,Non-Hodgkin's lymphoma; evaluable NHL patients,Nine of 15
same,objective response,Non-Hodgkin's lymphoma; follicular lymphoma,3 of 5
same,response,"Non-Hodgkin's lymphoma; one patient with marginal zone nodular lymphoma, approaching one year on therapy",partial response
same,FDG uptake,Non-Hodgkin's lymphoma; [2],reduction
same,reduction in lesion size via computed tomography (CT),Non-Hodgkin's lymphoma; [2],73%
same,reduction in lesion size via computed tomography (CT),"Non-Hodgkin's lymphoma; patient with transformed DLBCL, wild type EZH2, 100 mg orally twice a day",66%
same,reduction from baseline in PD H3K27 trimethylation in skin biopsy,"H3K27 trimethylation; patient with primary mediastinal B-cell lymphoma, 200 mg orally twice a day",27%
same,reduction from baseline in PD H3K27 trimethylation in skin biopsy,"H3K27 trimethylation; patient with transformed DLBCL, 100 mg orally twice a day",21%
same,tri-methyl H3K27 levels across the full thickness of skin,H3K27 trimethylation; pre- and post-dose skin biopsies,dose-dependent reduction
same,effect of combination with CHOP chemotherapy on mean tumor volume,WSU-DLCL2 tumor,synergy
same,PK at steady state throughout the entire dosing range,clinical,dose-proportional linear PK
same,absorption,clinical,rapid absorption
same,half-life,clinical,3 to 5 h
CO[C@H]1C[C@@H]2CC[C@@H](C)[C@@](O)(O2)C(=O)C(=O)N2CCCC[C@H]2C(=O)O[C@H]([C@H](C)C[C@@H]2CC[C@@H](OCCO)[C@H](OC)C2)CC(=O)[C@H](C)/C=C(\C)[C@@H](O)[C@@H](OC)C(=O)[C@H](C)C[C@H](C)/C=C/C=C/C=C/1C [Everolimus],"combination effect with EPZ-6438, RC-K8",RC-K8,S
same,"combination effect with EPZ-6438, SUDHL5",SUDHL5,S
same,"combination effect with EPZ-6438, KARPAS-422",KARPAS-422,ADD.
same,"combination effect with EPZ-6438, Farage",Farage,S
same,"combination effect with EPZ-6438, TMD8",TMD8,S
same,"combination effect with EPZ-6438, OCI-LY7",OCI-LY7,S
same,"combination effect with EPZ-6438, SUDHL2",SUDHL2,S
same,"combination effect with EPZ-6438, OCI-LY3",OCI-LY3,S
same,"combination effect with EPZ-6438, SU-DHL-6",SU-DHL-6,S
same,"combination effect with EPZ-6438, HT",HT,S
same,"combination effect with EPZ-6438, SU-DHL-10",SU-DHL-10,S
same,"combination effect with EPZ-6438, WSU-DLCL2",WSU-DLCL2,S
C=CC(=O)N1CCC[C@@H](n2nc(-c3ccc(Oc4ccccc4)cc3)c3c(N)ncnc32)C1 [Ibrutinib],"combination effect with EPZ-6438, RC-K8",RC-K8,ADD.
same,"combination effect with EPZ-6438, SUDHL5",SUDHL5,S
same,"combination effect with EPZ-6438, KARPAS-422",KARPAS-422,S
same,"combination effect with EPZ-6438, Farage",Farage,S
same,"combination effect with EPZ-6438, TMD8",TMD8,S
same,"combination effect with EPZ-6438, OCI-LY7",OCI-LY7,S
same,"combination effect with EPZ-6438, SUDHL2",SUDHL2,ADD.
same,"combination effect with EPZ-6438, OCI-LY3",OCI-LY3,ADD.
same,"combination effect with EPZ-6438, SU-DHL-6",SU-DHL-6,S
same,"combination effect with EPZ-6438, HT",HT,S
same,"combination effect with EPZ-6438, SU-DHL-10",SU-DHL-10,S
same,"combination effect with EPZ-6438, WSU-DLCL2",WSU-DLCL2,S
C[C@]12C=CC(=O)C=C1CC[C@@H]1[C@@H]2[C@@H](O)C[C@@]2(C)[C@H]1CC[C@]2(O)C(=O)CO [Prednisolone],"combination effect with EPZ-6438, DOHH2 (WT EZH2 GC)",DOHH2,Synergy
same,"combination effect with EPZ-6438, DOHH2",DOHH2,S
same,"combination effect with EPZ-6438, OCI-LY-19 (WT EZH2 GC)","OCI-LY19; Table 3, 4+3 model",Synergy
same,"combination effect with EPZ-6438, OCI-LY19",OCI-LY19; 4+3 model,S
same,"combination effect with EPZ-6438, RC-K8",RC-K8,S
same,"combination effect with EPZ-6438, Toledo (WT EZH2 ABC)",Toledo,No effect
same,"combination effect with EPZ-6438, SU-DHL-5 (WT EZH2 GC)",SUDHL5; Table 3,Synergy
same,"combination effect with EPZ-6438, SUDHL5",SUDHL5,S
same,"combination effect with EPZ-6438, KARPAS-422",KARPAS-422,S
same,"combination effect with EPZ-6438, Farage",Farage,S
same,"combination effect with EPZ-6438, TMD8",TMD8,S
same,"combination effect with EPZ-6438, OCI-LY7",OCI-LY7,S
same,"combination effect with EPZ-6438, SUDHL2",SUDHL2,S
same,"combination effect with EPZ-6438, OCI-LY3",OCI-LY3,S
same,"combination effect with EPZ-6438, SU-DHL-6",SU-DHL-6,S
same,"combination effect with EPZ-6438, SU-DHL-6 (mutant EZH2 GC)",SU-DHL-6,Synergy
same,"combination effect with EPZ-6438, SU-DHL-10",SU-DHL-10,S
same,"combination effect with EPZ-6438, SU-DHL-10 (mutant EZH2 GC)",SU-DHL-10,Synergy
same,"combination effect with EPZ-6438, WSU-DLCL2",WSU-DLCL2,S
same,"combination effect with EPZ-6438, WSU-DLCL2 (mutant EZH2 GC)",WSU-DLCL2,Synergy
CC[C@]1(O)C[C@H]2CN(CCc3c([nH]c4ccccc34)[C@@](C(=O)OC)(c3cc4c(cc3OC)N(C=O)[C@H]3[C@@](O)(C(=O)OC)[C@H](OC(C)=O)[C@]5(CC)C=CCN6CC[C@]43[C@@H]65)C2)C1 [Vincristine],"combination effect with EPZ-6438, DOHH2 (WT EZH2 GC)",DOHH2,No effect
same,"combination effect with EPZ-6438, Toledo (WT EZH2 ABC)",Toledo,No effect
same,"combination effect with EPZ-6438, SU-DHL-6 (mutant EZH2 GC)",SU-DHL-6,Additive
same,"combination effect with EPZ-6438, SU-DHL-10 (mutant EZH2 GC)",SU-DHL-10,Additive
same,"combination effect with EPZ-6438, WSU-DLCL2 (mutant EZH2 GC)",WSU-DLCL2,Additive

# From US11951109B2, “EZH2 inhibitors for treating lymphoma” (Epizyme, Inc., priority 2015, dated 2024)
